Test results reported in patent US20250059174A1, “Pharmaceutical Compounds and Compositions as C-Kit Kinase Inhibitors” (Enanta Pharmaceuticals, Inc., priority 2023, published 2025).
pEC50, pIC50: −log10 of the molar value.

Assays:
[1] = molecular target: Recombinant human c-KIT kinase (Homo sapiens (Human), UniProt P10721); experiment: c-KIT kinase chemiluminescence assay (ADP-Glo); format: biochemical; details: ATP 50 μM
How it was run: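 Recombinant human c-KIT preincubated 30 min at RT in 40 mM Tris pH 7.5, 20 mM MgCl2, 0.1 mg/mL BSA, 50 μM DTT, then reacted 2 h at RT with ATP and polyEY substrate. ADP-Glo luminescence readout; activity normalized to high/low controls, IC50 and Hill coefficient from inhibitor-versus-normalized-response fit.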

M-07e cells = experiment: M-07e cellular assay (SCF-mediated cell proliferation); format: cell-based; details: Homo sapiens, 72 hours, CellTiter Glo
How it was run: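 Readout came from CellTiter Glo after 72 h of compound treatment in SCF (EC90)-stimulated, pre-starved M-07e cells at 37 °C.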

Recombinant human c-KIT kinase, sequence (P10721 26-976): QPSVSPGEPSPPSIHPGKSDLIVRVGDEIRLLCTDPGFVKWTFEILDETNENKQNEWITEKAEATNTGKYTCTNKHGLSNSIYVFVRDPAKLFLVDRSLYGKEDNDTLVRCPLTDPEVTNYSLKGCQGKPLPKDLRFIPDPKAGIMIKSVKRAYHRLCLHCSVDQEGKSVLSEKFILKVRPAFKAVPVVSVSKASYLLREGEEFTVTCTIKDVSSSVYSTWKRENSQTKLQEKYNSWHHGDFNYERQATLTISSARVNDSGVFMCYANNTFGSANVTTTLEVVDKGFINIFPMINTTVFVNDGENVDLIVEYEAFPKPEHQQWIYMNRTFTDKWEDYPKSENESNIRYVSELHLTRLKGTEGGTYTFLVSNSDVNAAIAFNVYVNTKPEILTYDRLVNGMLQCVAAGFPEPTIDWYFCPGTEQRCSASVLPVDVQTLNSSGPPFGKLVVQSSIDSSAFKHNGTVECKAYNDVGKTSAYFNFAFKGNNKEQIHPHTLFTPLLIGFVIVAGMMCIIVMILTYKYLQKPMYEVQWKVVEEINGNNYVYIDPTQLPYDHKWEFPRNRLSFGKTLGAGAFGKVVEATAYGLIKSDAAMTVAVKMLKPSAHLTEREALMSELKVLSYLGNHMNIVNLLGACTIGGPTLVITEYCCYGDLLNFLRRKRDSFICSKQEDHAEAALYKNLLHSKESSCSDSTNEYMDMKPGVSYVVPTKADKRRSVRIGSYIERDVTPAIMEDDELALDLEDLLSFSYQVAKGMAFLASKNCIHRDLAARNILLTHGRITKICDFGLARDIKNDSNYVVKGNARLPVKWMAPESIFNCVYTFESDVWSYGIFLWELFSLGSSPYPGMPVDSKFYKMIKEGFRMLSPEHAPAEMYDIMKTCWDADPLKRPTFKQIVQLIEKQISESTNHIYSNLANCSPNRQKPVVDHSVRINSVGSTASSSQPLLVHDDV

Row | SMILES | pIC50 [1] | pEC50 (M-07e cells)
1 | Cc1ccc(-c2noc([C@H]3C[C@@H]3F)n2)cc1NC(=O)c1cnc(-c2ccnc(N)c2)o1 [Example 290] | 6.00 to 7.00 | 6.00 to 7.00
2 | Cc1ccc(-c2noc([C@H]3C[C@@H]3F)n2)cc1NC(=O)c1cnc(-c2ccnc(NC(=O)OC(C)(C)C)c2)o1 [Example 291] | < 6.00 | < 6.00
3 | Cc1ccc(-c2noc([C@H]3C[C@@H]3F)n2)cc1NC(=O)c1cnc(-c2ccc3[nH]ncc3c2)o1 [Example 292] | > 7.00 | > 7.00
4 | Cc1ccc(-c2noc([C@H]3C[C@@H]3F)n2)cc1NC(=O)c1cnc(-c2ccc3[nH]ccc3c2)o1 [Example 293] | > 7.00 | > 7.00
5 | Cc1ccc(-c2noc([C@H]3C[C@@H]3F)n2)cc1NC(=O)c1cnc(-c2ccc3cn[nH]c3c2)o1 [Example 294] | > 7.00 | 6.00 to 7.00
6 | Cc1ccc(-c2noc([C@H]3C[C@@H]3F)n2)cc1NC(=O)c1cnc(-c2ccc3cc[nH]c3c2)o1 [Example 295] | > 7.00 | 6.00 to 7.00
7 | Cc1ccc(-c2noc([C@H]3C[C@@H]3F)n2)cc1NC(=O)c1cnc(-c2ccccn2)o1 [Example 296] | < 6.00 | < 6.00
8 | Cc1ccc(-c2noc([C@H]3C[C@@H]3F)n2)cc1NC(=O)c1cnc(-c2ccc(N3CC4(COC4)C3)cc2)o1 [Example 297] | 6.00 to 7.00 | 6.00 to 7.00
9 | Cc1ccc(-c2noc([C@H]3C[C@@H]3F)n2)cc1NC(=O)c1cnc(-c2ccc(NC(=O)OC(C)(C)C)nc2)o1 [Example 298] | < 6.00 | 6.00 to 7.00
10 | Cc1ccc(-c2noc([C@H]3C[C@@H]3F)n2)cc1NC(=O)c1cnc(-c2ccc3c(c2)CC(=O)N3)o1 [Example 299] | > 7.00 | > 7.00
11 | Cc1ccc(-c2noc([C@H]3C[C@@H]3F)n2)cc1NC(=O)c1cnc(-c2ccc3[nH]c(=O)oc3c2)o1 [Example 300] | 6.00 to 7.00 | 6.00 to 7.00
12 | Cc1ccc(-c2noc([C@H]3C[C@@H]3F)n2)cc1NC(=O)c1cnc(-c2ccc3c(c2)NC(=O)C3)o1 [Example 301] | 6.00 to 7.00 | < 6.00
13 | Cc1ccc(-c2noc([C@H]3C[C@@H]3F)n2)cc1NC(=O)c1cnc(-c2ccc3[nH]c(=O)[nH]c3c2)o1 [Example 302] | > 7.00 | < 6.00
14 | Cc1ccc(-c2noc([C@H]3C[C@@H]3F)n2)cc1NC(=O)c1cnc(-c2ccc3[nH]c4ccccc4c3c2)o1 [Example 303] | 6.00 to 7.00 | 6.00 to 7.00
15 | Cc1ccc(-c2noc([C@H]3C[C@@H]3F)n2)cc1NC(=O)c1cnc(-c2ccc3[nH]c(C(F)(F)F)cc3c2)o1 [Example 304] | > 7.00 | > 7.00
16 | Cc1ccc(-c2noc([C@H]3C[C@@H]3F)n2)cc1NC(=O)c1cnc(-c2cccc(N)n2)o1 [Example 305] | < 6.00 | < 6.00
17 | Cc1ccc(-c2noc([C@H]3C[C@@H]3F)n2)cc1NC(=O)c1cnc(-c2cccc(NC(=O)OC(C)(C)C)n2)o1 [Example 306] | < 6.00 | < 6.00
18 | Cc1ccc(-c2noc([C@H]3C[C@@H]3F)n2)cc1NC(=O)c1cnc(-c2ccc3oc(=O)[nH]c3c2)o1 [Example 307] | < 6.00 | 6.00 to 7.00
19 | Cc1ccc(-c2noc([C@H]3C[C@@H]3F)n2)cc1NC(=O)c1cnc(-c2ccc3[nH]c(C#N)cc3c2)o1 [Example 308-1] | 6.00 to 7.00 | 6.00 to 7.00
20 | Cc1ccc(-c2noc([C@H]3C[C@@H](C(F)(F)F)C3)n2)cc1NC(=O)c1cnc(-c2ccc3c(c2)CC(=O)N3)o1 [Example 308-2] | > 7.00 | > 7.00
21 | Cc1ccc(-c2noc([C@H]3C[C@@H](OC(F)(F)F)C3)n2)cc1NC(=O)c1cnc(-c2ccc3c(c2)CC(=O)N3)o1 [Example 308-3] | > 7.00 | > 7.00
22 | Cc1ccc(-c2noc([C@H]3C[C@@H]3F)n2)cc1NC(=O)c1cnc(-c2ccc3c(c2)C2(CC2)C(=O)N3)o1 [Example 308-4] | 6.00 to 7.00 | 6.00 to 7.00
23 | Cc1ccc(-c2noc([C@H]3C[C@@H]3F)n2)cc1NC(=O)c1cnc(-n2cccn2)o1 [Example 308-5] | < 6.00 | < 6.00
24 | Cc1cc(C)n(-c2ncc(C(=O)Nc3cc(-c4noc([C@H]5C[C@@H]5F)n4)ccc3C)o2)n1 [Example 308-6] | < 6.00 | < 6.00

Row | SMILES | pIC50 [1] | pEC50 (M-07e cells)
25 | Cc1ccc(-c2noc([C@H]3C[C@@H]3F)n2)cc1NC(=O)c1cnc(-c2c(C)nn(CC(C)(C)O)c2C)o1 [Example 308-7] | < 6.00 | < 6.00
26 | Cc1ccc(-c2noc([C@H]3C[C@@H]3F)n2)cc1NC(=O)c1cnc(-c2ccc3c(c2)C2(CCN(C(=O)OC(C)(C)C)CC2)C(=O)N3)o1 [Example 308-8] | < 6.00 | 6.00 to 7.00
27 | Cc1ccc(-c2noc([C@H]3C[C@@H]3F)n2)cc1NC(=O)c1cnc(-c2ccc3c(c2)C2(CCNCC2)C(=O)N3)o1 [Example 308-9] | 6.00 to 7.00 | < 6.00
28 | Cc1cc(F)c(-c2noc([C@H]3C[C@@H]3F)n2)cc1NC(=O)c1cnc(-c2ccc3c(cnn3C(=O)OC(C)(C)C)c2)o1 [Example 308-10] | < 6.00 | 6.00 to 7.00
29 | Cc1cc(F)c(-c2noc([C@H]3C[C@@H]3F)n2)cc1NC(=O)c1cnc(-c2ccc3[nH]ncc3c2)o1 [Example 308-11] | 6.00 to 7.00 | 6.00 to 7.00
30 | Cc1ncc(-c2noc([C@H]3C[C@@H]3F)n2)cc1NC(=O)c1cnc(-c2ccc3c(c2)CC(=O)N3)o1 [Example 308-12] | < 6.00 | 6.00 to 7.00
31 | Cc1ccc(-c2noc([C@H]3C[C@@H]3F)n2)cc1NC(=O)c1cnc(-c2ccc(-n3cccn3)cc2)o1 [Example 308-13] | < 6.00 | < 6.00
32 | Cc1ccc(-c2noc([C@H]3C[C@@H]3F)n2)cc1NC(=O)c1cnc(-c2ccc3[nH]c(=O)ccc3c2)o1 [Example 308-14] | > 7.00 | > 7.00
33 | Cc1ccc(-c2noc([C@H]3C[C@@H]3F)n2)cc1NC(=O)c1cnc(-c2ccc3c(c2)CCC(=O)N3)o1 [Example 308-15] | 6.00 to 7.00 | 6.00 to 7.00
34 | Cc1ccc(-c2noc([C@H]3C[C@@H]3F)n2)cc1NC(=O)c1cnc(-c2ccc(-c3cnn(C)c3)cc2)o1 [Example 308-16] | 6.00 to 7.00 | 6.00 to 7.00
35 | Cc1ccc(-c2noc([C@H]3C[C@@H]3F)n2)cc1NC(=O)c1cnc(-c2cnc3[nH]ccc3c2)o1 [Example 308-17] | > 7.00 | > 7.00
36 | Cc1ccc(-c2noc([C@H]3C[C@@H]3F)n2)cc1NC(=O)c1cnc(-c2ccc3nccn3c2)o1 [Example 308-18] | 6.00 to 7.00 | 6.00 to 7.00
37 | CC(=O)Nc1ccc(-c2ncc(C(=O)Nc3cc(-c4noc([C@H]5C[C@@H]5F)n4)ccc3C)o2)cc1 [Example 308-19] | 6.00 to 7.00 | 6.00 to 7.00
38 | CC(=O)Nc1ccc(-c2ncc(C(=O)Nc3cc(-c4noc([C@H]5C[C@@H]5F)n4)ccc3C)o2)cn1 [Example 308-20] | < 6.00 | 6.00 to 7.00
39 | Cc1ccc(-c2noc([C@H]3C[C@@H]3F)n2)cc1NC(=O)c1cnc(-c2ccc3[nH]nc(C)c3c2)o1 [Example 308-21] | > 7.00 | > 7.00
40 | Cc1ccc(-c2noc([C@H]3C[C@@H]3F)n2)cc1NC(=O)c1cnc(-c2ccc(NS(C)(=O)=O)cc2)o1 [Example 308-22] | 6.00 to 7.00 | 6.00 to 7.00
41 | Cc1ccc(-c2noc([C@H]3C[C@@H]3F)n2)cc1NC(=O)c1cnc(-c2cccc3cn[nH]c23)o1 [Example 308-23] | > 7.00 | < 6.00
42 | Cc1ccc(-c2noc([C@H]3C[C@@H]3F)n2)cc1NC(=O)c1cnc(-c2ccc3c(c2)OCCN3)o1 [Example 308-24] | > 7.00 | > 7.00
43 | Cc1ccc(-c2noc([C@H]3C[C@@H]3F)n2)cc1NC(=O)c1cnc(-c2ccc3c(c2)OC(C)(C)C(=O)N3)o1 [Example 308-25] | 6.00 to 7.00 | 6.00 to 7.00
44 | CCOC(=O)c1cc2cc(-c3ncc(C(=O)Nc4cc(-c5noc([C@H]6C[C@@H]6F)n5)ccc4C)o3)ccc2[nH]1 [Example 308-26] | > 7.00 | 6.00 to 7.00
45 | Cc1cc2cc(-c3ncc(C(=O)Nc4cc(-c5noc([C@H]6C[C@@H]6F)n5)ccc4C)o3)ccc2[nH]1 [Example 308-27] | > 7.00 | > 7.00
46 | Cc1ccc(-c2noc([C@H]3C[C@@H]3F)n2)cc1NC(=O)c1cnc(-c2cccc(NS(C)(=O)=O)c2)o1 [Example 308-28] | 6.00 to 7.00 | 6.00 to 7.00
47 | Cc1ccc(-c2noc([C@H]3C[C@@H]3F)n2)cc1NC(=O)c1cnc(-c2cccc3[nH]ccc23)o1 [Example 308-29] | > 7.00 | 6.00 to 7.00
